The nature of data set [1]: in vivo. The settings on record: rat, po, 150 mg/kg. The method, then: (§1) Three studies were performed to investigate the pharmacokinetics of oral administration of a scyllo-cyclohexanehexyl (Table 1):
Plasma pharmacokinetics (PK) of a scyllo-cyclohexanehexyl in rats was assessed after single oral doses of 15, 50 and 150 mg/kg. After single oral doses in rats, maximum plasma concentration (Cmax) and exposure (AUC0-t) values increased proportionally with dose level of the scyllo-cyclohexanehexyl. Other parameters were unchanged with dose level. The scyllo-cyclohexanehexyl was absorbed rapidly, with mean tmax observed between 1.0 and 2.2 hours post-dose. […] Estimates of mean residence time (MRT) were consistent. Volumes of distribution (Vdss) were large, indicating wide distribution of scyllo-cyclohexanehexyl in rats.

Data set [2] is described as follows: in vivo. Conditions: dog, po. On the procedure: as §1
Two studies have investigated the single dose PK of oral administration of a scyllo-cyclohexanehexyl in dogs. The 14 day study investigated 18 animals. On Day 1 of this study Cmax and AUC values increased proportionally with dose level of a scyllo-cyclohexanehexyl. […] The extensive brain penetrance of the scyllo-cyclohexanhexyl (see below) may be relevant in this regard.

The nature of data set [3]: in vivo. Conditions: dog, po, 150 mg/kg. On the procedure: Plasma PK of a scyllo-cyclohexanhexyl in dogs was assessed after 14 days oral dosing of 15, 50 and 150 mg/kg, administered twice daily. As on Day 1 of this study Cmax and AUC values increased proportionally with dose level of scyllo-cyclohexanehexyl. However, dose-normalised exposures appeared to decrease with dose. This contrasts with positive trend observed after acute exposure. […] As for single doses, the scyllo-cyclohexanehexyl was absorbed rapidly, with tmax observed between 1.1 and 1.8 hours post-dose. […] Estimates of MRT were consistent. The Vdss and Cl/F values were similar for all dose levels.

Data set [4] is described as follows: Brain penetrance: plasma and CSF pharmacokinetics after single oral doses in dogs. It counts as in vivo, dog. The source says:
CSF bathes the central nervous system and sits on the inside of the blood brain barrier. Although a centrally-acting drug will still need to penetrate brain tissue to exert an effect, quantification of drug in CSF may provide a gross estimate of brain-penetrance.

Data set [5] in a line: Single oral and intravenous dose pharmacokinetics, dose range-finding study in beagle dogs. It counts as in vivo, beagle dog. The settings on record: dogs, comparison of PK profiles following oral and i.v. administration. On the procedure: PK of single oral doses of the scyllo-cyclohexanhexyl was also investigated in a preliminary fashion in a dose range-finding study in 5 beagle dogs. […] The Cmax and AUC values increased proportionally with dose, consistent with observations in the larger study. Estimates of t½ ranged from 2 to 5 hours. Neither dose nor route of administration had any clear effect on t½, MRT, Cl/F or Vdss.

Data set [6] in a line: CSF and plasma levels at end of 14 day repeat dose study in dogs. In kind it is in vivo, dog. Conditions: 30 mg/kg/day for 14 days. The method, then: CSF was also collected from dogs at the end of the 14 day repeat study upon necropsy (approximately 24 hours after the final dose was administered). Levels of the scyllo-cyclohexanehexyl in CSF increased with dose and followed the profile observed in plasma.

Data set [7] can be described thus: in vivo. Conditions: rat. The method, then:
Plasma PK of a scyllo-cyclohexanehexyl compound in rats was assessed after 28 days oral dosing of 15, 50 and 150 mg/kg, administered twice daily. […] Indeed, at this dose level, the Vdss, clearance and elimination rates appeared to be reduced with repeated dosing. […] As for single doses, the scyllo-cyclohexanehexyl was absorbed rapidly, with mean tmax observed between 1.2 and 1.3 hours post-dose. […] Estimates of MRT were consistent.

Setting [8] is: single oral doses 20, 80, 240 mg/kg.

“And” between values parts separate entries of the source, which are not always exact repeats. Equal entries are not always repeated.

The source of these data is US20100113613A1, “CYCLOHEXANE POLYALCOHOL FORMULATION FOR TREATMENT OF DISORDERS OF PROTEIN AGGREGATION” (WARATAH PHARMACEUTICALS, priority 2006, published 2010).

In general, Tmax refers to the time at which the peak concentration occurs. By t½ is commonly meant the time in which the quantity being followed falls by half. The low end stands for rapid decline, the high end for slow decline. The AUC(0-t) is the area under the concentration-time curve up to a stated or last time point. A lower AUC(0-t) goes with low exposure.

For the substance scyllo-inositol [AZD-103], in data set [1], the “half life (t1/2)” value was 2.1 to 2.7 h and the mean tmax lay in the range of 1.0 to 2.2 h. In addition, in data set [2], the time to peak (Tmax) was in the range of 1.2 to 2.2 h and the t½ is 1.7 to 2.2 h. Besides, in data set [3], the AUC(0-t) worked out at 523 µg·h/mL, the Tmax was 1.1 to 1.8 h and the t½ was 2.9 to 4.7 h. Besides, the “Mean Cmax and AUC0-Inf in CSF as % of that observed in plasma” value in data set [4] was determined as 60%. For the same substance, in data set [4] (setting [8]), the “plasma tmax (same animals)” value lay within 2.3 to 2.8 h and the “tmax in CSF” value was in the range of 2.8 to 4.0 h. For the same substance, the “Mean Cmax in CSF as % of plasma Cmax” value in data set [4] (single oral doses 20, 80, 240 mg/kg, same animals) is recorded as 27-66%. Besides, the “AUC0-Inf in CSF as % of that in plasma” value in data set [4] (single oral doses, same animals, listed as scyllo-cyclohexanehexyl) was 62% and 65%. Besides, the estimated bioavailability in data set [5] was > 90%. Moreover, the “levels in both plasma and CSF (12 and 24 hours after the last administration)” value in data set [6] is ~4000 ng/mL. Moreover, the “mean plasma concentration 12 hours after the last administration” value in data set [7] was ~6000 ng/mL. In data set [7] (po, 150 mg/kg), this substance gave an AUC(0-t) of 573 µg·h/mL, a mean tmax of 1.2 to 1.3 h and a t½ of 3.1 to 4.4 h.
